Where two headings read alike, the source gives them in different places.
What was measured:
[1] = biological target: T1, His-GST-TVMV-hRIPK1(1-324) (Homo sapiens, UniProt Q13546); test: biochemical; format: binding
T1 construct: The coding region of human RIPK1(1-324) flanked by NdeI site at 5′ end; made in house; host or cells: Spodoptera frugiperda Sf9 insect cells (baculovirus, Bac-to-Bac)
T1 sequence (Q13546 1-324): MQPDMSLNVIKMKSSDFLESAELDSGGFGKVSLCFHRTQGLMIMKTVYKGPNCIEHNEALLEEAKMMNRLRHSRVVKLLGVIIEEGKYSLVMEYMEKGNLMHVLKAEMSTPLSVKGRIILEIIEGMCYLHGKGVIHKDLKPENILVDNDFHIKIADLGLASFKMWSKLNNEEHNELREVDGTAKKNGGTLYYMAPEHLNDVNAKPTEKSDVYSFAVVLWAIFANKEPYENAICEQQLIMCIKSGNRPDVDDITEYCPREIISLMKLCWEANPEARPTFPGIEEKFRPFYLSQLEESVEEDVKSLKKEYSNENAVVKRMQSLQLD

[2] = tested on: MLKL phosphorylation in HT29-L23 human colorectal adenocarcinoma cells; test: MLKL phosphorylation high-content assay; format: cell-based
[3] = biological target: GST-tagged PIK3Cδ in complex with PIK3R1 (Homo sapiens, UniProt O00329); test: PI3Kδ HTRF binding assay; conditions: HTRF probe displacement, 1 h at rt; read-out: PIK3CD IC50
Chain of GST-tagged PIK3Cδ in complex with PIK3R1 (O00329 whole entry): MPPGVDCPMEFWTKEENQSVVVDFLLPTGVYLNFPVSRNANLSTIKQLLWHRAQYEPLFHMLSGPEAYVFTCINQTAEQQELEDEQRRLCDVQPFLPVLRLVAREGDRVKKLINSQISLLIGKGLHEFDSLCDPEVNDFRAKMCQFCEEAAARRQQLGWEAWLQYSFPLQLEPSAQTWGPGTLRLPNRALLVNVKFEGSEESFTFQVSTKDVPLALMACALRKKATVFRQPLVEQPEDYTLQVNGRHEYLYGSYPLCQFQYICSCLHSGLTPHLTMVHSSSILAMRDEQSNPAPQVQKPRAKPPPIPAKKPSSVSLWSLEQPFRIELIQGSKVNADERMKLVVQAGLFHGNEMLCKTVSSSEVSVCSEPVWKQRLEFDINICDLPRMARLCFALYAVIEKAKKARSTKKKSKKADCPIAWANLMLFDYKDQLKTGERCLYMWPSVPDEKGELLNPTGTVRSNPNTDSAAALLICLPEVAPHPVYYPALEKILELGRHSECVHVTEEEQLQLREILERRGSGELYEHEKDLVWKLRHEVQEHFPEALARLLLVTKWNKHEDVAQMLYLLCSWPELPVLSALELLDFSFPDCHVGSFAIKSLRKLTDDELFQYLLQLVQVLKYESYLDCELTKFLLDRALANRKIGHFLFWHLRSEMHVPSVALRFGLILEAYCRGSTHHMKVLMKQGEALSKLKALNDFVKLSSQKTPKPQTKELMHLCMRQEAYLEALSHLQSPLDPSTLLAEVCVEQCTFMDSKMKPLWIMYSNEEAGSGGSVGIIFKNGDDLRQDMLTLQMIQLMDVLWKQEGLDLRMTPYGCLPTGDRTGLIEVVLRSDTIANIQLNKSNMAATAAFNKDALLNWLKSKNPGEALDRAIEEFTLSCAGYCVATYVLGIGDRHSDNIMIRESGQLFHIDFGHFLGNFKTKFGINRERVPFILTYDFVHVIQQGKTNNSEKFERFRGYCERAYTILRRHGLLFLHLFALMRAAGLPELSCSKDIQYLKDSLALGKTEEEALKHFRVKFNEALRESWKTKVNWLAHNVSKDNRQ
Chain of GST-tagged PIK3Cδ in complex with PIK3R1 (P27986 whole entry partner): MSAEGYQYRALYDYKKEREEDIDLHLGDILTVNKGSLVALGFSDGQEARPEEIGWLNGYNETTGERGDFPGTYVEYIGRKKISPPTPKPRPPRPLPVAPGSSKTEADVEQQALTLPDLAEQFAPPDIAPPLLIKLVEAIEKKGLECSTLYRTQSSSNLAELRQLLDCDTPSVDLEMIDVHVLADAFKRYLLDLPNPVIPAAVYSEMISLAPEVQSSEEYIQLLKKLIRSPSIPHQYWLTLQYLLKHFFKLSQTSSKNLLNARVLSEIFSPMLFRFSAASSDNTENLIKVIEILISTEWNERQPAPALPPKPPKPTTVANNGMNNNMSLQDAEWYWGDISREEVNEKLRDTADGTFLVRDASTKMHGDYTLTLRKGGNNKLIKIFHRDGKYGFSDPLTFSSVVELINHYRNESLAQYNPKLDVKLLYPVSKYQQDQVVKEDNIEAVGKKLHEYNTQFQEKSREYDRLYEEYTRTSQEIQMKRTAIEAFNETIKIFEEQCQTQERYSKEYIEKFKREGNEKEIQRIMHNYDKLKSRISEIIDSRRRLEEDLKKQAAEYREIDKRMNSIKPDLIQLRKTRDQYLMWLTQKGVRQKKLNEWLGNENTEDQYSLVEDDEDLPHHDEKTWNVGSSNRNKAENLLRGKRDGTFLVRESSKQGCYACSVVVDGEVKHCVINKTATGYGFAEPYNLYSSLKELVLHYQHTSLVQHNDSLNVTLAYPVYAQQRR

[4] = HTRF probe displacement, 1 h at rt, read-out: RIPK1 IC50
[5] = Homo sapiens, 6 h, read-out: pMLKL IC50, HT29-L23 cells, necroptosis induced with TNFα, SMAC mimetic and Z-VAD, 6 h, maximal inhibition defined by Nec1s
[6] = read-out: pMLKL IC50, HT29-L23 cells, necroptosis induced with TNFα, SMAC mimetic and Z-VAD, 6 h, maximal inhibition defined by Nec1s

Structure (SMILES)	IC50 [1, 4]	IC50 [2, 5]	IC50 [3]	IC50 ([1]; Table 22, compounds of the present invention, read-out: RPIK1 IC50)	IC50 ([2]; Homo sapiens, 6 h, HT29-L23 cells, necroptosis induced with TNFα, SMAC mimetic and Z-VAD, 6 h, maximal inhibition defined by Nec1s, read-out: pMLKL IC50)	IC50 ([2]; Homo sapiens, Table 22, compounds of the present invention, read-out: pMLKL IC50)	IC50 [2, 6]
Nc1nc2cc(-c3ccc(Cl)c(C(=O)NCC[C@H](O)c4ccc(Cl)cc4)c3F)ccn2n1 [Example 153, (S)-3-(2-amino-[1,2,4]triazolo[1,5-a]pyridin-7-yl)-6-chloro-N-(3-(4-chlorophenyl)-3-hydroxypropyl)-2-fluorobenzamide]	4.1 nM	8.3 nM	> 15000 nM	–	–	–	–
Nc1nc2cc(-c3ccc(Cl)c(C(=O)NCC[C@@H](O)c4ccc(Cl)cc4)c3F)ccn2n1 [Example 154, (R)-3-(2-amino-[1,2,4]triazolo[1,5-a]pyridin-7-yl)-6-chloro-N-(3-(4-chlorophenyl)-3-hydroxypropyl)-2-fluorobenzamide]	4.7 nM	1.4 nM	> 15000 nM	–	–	–	–
CCc1ccc(-c2ccn3nc(N)nc3c2)c(F)c1C(=O)NCC[C@H](O)c1ccc(Cl)cc1 [Example 155, (S)-3-(2-amino-[1,2,4]triazolo[1,5-a]pyridin-7-yl)-N-(3-(4-chlorophenyl)-3-hydroxypropyl)-6-ethyl-2-fluorobenzamide]	2.7 nM	0.6 nM	> 15000 nM	–	–	–	–
CCc1ccc(-c2ccn3nc(N)nc3c2)c(F)c1C(=O)NCC[C@@H](O)c1ccc(Cl)cc1 [Example 156, (R)-3-(2-amino-[1,2,4]triazolo[1,5-a]pyridin-7-yl)-N-(3-(4-chlorophenyl)-3-hydroxypropyl)-6-ethyl-2-fluorobenzamide]	5.8 nM	0.8 nM	> 15000 nM	–	–	–	–
Cc1ccc(-c2ccn3nc(N)nc3c2)cc1C(=O)NCC[C@@H](O)c1ccc(Cl)cc1 [Example 159, (R)-5-(2-amino-[1,2,4]triazolo[1,5-a]pyridin-7-yl)-N-(3-(4-chlorophenyl)-3-hydroxypropyl)-2-methylbenzamide]	2.5 nM	–	> 15000 nM	2.5 nM	1.9 nM	1.9 nM	–
Nc1nc2cc(-c3ccc(Cl)c(C(=O)NCC(F)(F)C(O)c4ccc(OC(F)F)cc4)c3F)ccn2n1 (centres unmarked) [Example 186, 3-(2-amino-[1,2,4]triazolo[1,5-a]pyridin-7-yl)-6-chloro-N-(3-(4-(difluoromethoxy)phenyl)-2,2-difluoro-3-hydroxypropyl)-2-fluorobenzamide]	2.9 nM	–	12000 nM	–	–	–	0.2 nM
Nc1nc2cc(-c3ccc(Cl)c(C(=O)NCC(F)(F)C(O)c4ccc(OC(F)F)cc4)c3F)ccn2n1 (centres unmarked) [Example 187, 3-(2-amino-[1,2,4]triazolo[1,5-a]pyridin-7-yl)-6-chloro-N-(3-(4-(difluoromethoxy)phenyl)-2,2-difluoro-3-hydroxypropyl)-2-fluorobenzamide]	3.2 nM	–	> 15000 nM	–	–	–	1.7 nM
Nc1nc2cc(-c3ccc(Cl)c(C(=O)NCC(F)(F)C(O)c4cc(F)cc(F)c4)c3F)ccn2n1 (centres unmarked) [Example 188, 3-(2-amino-[1,2,4]triazolo[1,5-a]pyridin-7-yl)-6-chloro-N-(3-(3,5-difluorophenyl)-2,2-difluoro-3-hydroxypropyl)-2-fluorobenzamide]	6.3 nM	–	9400 nM	–	–	–	0.3 nM
Nc1nc2cc(-c3ccc(Cl)c(C(=O)NCC(F)(F)C(O)c4cc(F)cc(F)c4)c3F)ccn2n1 (centres unmarked) [Example 189, 3-(2-amino-[1,2,4]triazolo[1,5-a]pyridin-7-yl)-6-chloro-N-(3-(3,5-difluorophenyl)-2,2-difluoro-3-hydroxypropyl)-2-fluorobenzamide]	11 nM	–	5600 nM	–	–	–	38 nM
Nc1nc2cc(-c3ccc(Cl)c(C(=O)NCC(F)(F)C(O)c4ccc(Cl)c(F)c4)c3F)ccn2n1 (centres unmarked) [Example 190, 3-(2-amino-[1,2,4]triazolo[1,5-a]pyridin-7-yl)-6-chloro-N-(3-(4-chloro-3-fluorophenyl)-2,2-difluoro-3-hydroxypropyl)-2-fluorobenzamide]	3.3 nM	0.7 nM	> 15000 nM	–	–	–	–
Nc1nc2cc(-c3ccc(Cl)c(C(=O)NCC(F)(F)C(O)c4ccc(Cl)c(F)c4)c3F)ccn2n1 (centres unmarked) [Example 191]	2.6 nM	–	> 15000 nM	–	–	–	1.4 nM
Cc1ccc(-c2ccn3nc(N)nc3c2)c(F)c1C(=O)NCCC(O)C1CCCC1 (centres unmarked) [Example 247, 3-(2-amino-[1,2,4]triazolo[1,5-a]pyridin-7-yl)-N-(3-cyclopentyl-3-hydroxypropyl)-2-fluoro-6-methylbenzamide]	13 nM	21 nM	> 15000 nM	–	–	–	–
Cc1ccc(-c2ccn3nc(N)nc3c2)c(F)c1C(=O)NCCC(O)C1CCCC1 (centres unmarked) [Example 248, 3-(2-amino-[1,2,4]triazolo[1,5-a]pyridin-7-yl)-N-(3-cyclopentyl-3-hydroxypropyl)-2-fluoro-6-methylbenzamide]	22 nM	–	> 15000 nM	–	–	–	20 nM
Nc1nc2cc(-c3ccc(F)c(C(=O)NCCC4(c5ccc(F)cc5)CC4)c3F)ccn2n1 [Example 249, 3-(2-amino-[1,2,4]triazolo[1,5-a]pyridin-7-yl)-2,6-difluoro-N-(2-(1-(4-fluorophenyl)cyclopropyl)ethyl)benzamide]	2.1 nM	10 nM	> 15000 nM	–	–	–	–
COc1ccc(-c2ccn3nc(N)nc3c2)c(F)c1C(=O)NCC(F)(F)C(O)c1ccc(Cl)c(Cl)c1 (centres unmarked) [Example 267, 3-{2-amino-[1,2,4]triazolo[1,5-a]pyridin-7-yl}-N-[3-(3,4-dichlorophenyl)-2,2-difluoro-3-hydroxypropyl]-2-fluoro-6-methoxybenzamide]	2.8 nM	–	> 15000 nM	–	–	–	1 nM
COc1ccc(-c2ccn3nc(N)nc3c2)c(F)c1C(=O)NCC(F)(F)C(O)c1ccc(Cl)c(Cl)c1 (centres unmarked) [Example 268, 3-{2-amino-[1,2,4]triazolo[1,5-a]pyridin-7-yl}-N-[3-(3,4-dichlorophenyl)-2,2-difluoro-3-hydroxypropyl]-2-fluoro-6-methoxybenzamide]	3.8 nM	–	8800 nM	–	–	–	4.3 nM
Cc1ccc(-c2ccn3nc(N)nc3c2)c(F)c1C(=O)NCC(F)(F)C(O)c1ccc(F)cn1 (centres unmarked) [Example 269, 3-{2-amino-[1,2,4]triazolo[1,5-a]pyridin-7-yl}-N-[2,2-difluoro-3-(5-fluoropyridin-2-yl)-3-hydroxypropyl]-2-fluoro-6-methylbenzamide]	4.6 nM	–	> 15000 nM	–	–	–	1.5 nM
Cc1ccc(-c2ccn3nc(N)nc3c2)c(F)c1C(=O)NCC(F)(F)C(O)c1ccc(F)cn1 (centres unmarked) [Example 270, 3-{2-amino-[1,2,4]triazolo[1,5-a]pyridin-7-yl}-N-[2,2-difluoro-3-(5-fluoropyridin-2-yl)-3-hydroxypropyl]-2-fluoro-6-methylbenzamide]	11 nM	–	> 15000 nM	–	–	–	3.1 nM
Cc1cc(F)c(-c2ccn3nc(N)nc3c2)c(F)c1C(=O)NCC[C@H](O)c1ccc(Cl)cc1 [Example 277, (S)-3-(2-amino-[1,2,4]triazolo[1,5-a]pyridin-7-yl)-N-(3-(4-chlorophenyl)-3-hydroxypropyl)-2,4-difluoro-6-methylbenzamide]	36 nM	69 nM	> 15000 nM	–	–	–	–
Cc1cc(F)c(-c2ccn3nc(N)nc3c2)c(F)c1C(=O)NCC[C@@H](O)c1ccc(Cl)cc1 [Example 278, (R)-3-(2-amino-[1,2,4]triazolo[1,5-a]pyridin-7-yl)-N-(3-(4-chlorophenyl)-3-hydroxypropyl)-2,4-difluoro-6-methylbenzamide]	13 nM	38 nM	> 15000 nM	–	–	–	–
Nc1nc2cc(-c3ccc(Cl)c(C(=O)NCC(F)(F)C(=O)c4ccc(F)cc4)c3F)ccn2n1 [Example 280, 3-(2-amino-[1,2,4]triazolo[1,5-a]pyridin-7-yl)-6-chloro-N-(2,2-difluoro-3-(4-fluorophenyl)-3-oxopropyl)-2-fluorobenzamide]	15 nM	1.4 nM	11000 nM	–	–	–	–
Cc1ccc(-c2ccn3nc(N)nc3c2)c(F)c1C(=O)NCC(F)(F)C(=O)c1ccc(F)cc1 [Example 281, 3-(2-amino-[1,2,4]triazolo[1,5-a]pyridin-7-yl)-N-(2,2-difluoro-3-(4-fluorophenyl)-3-oxopropyl)-2-fluoro-6-methylbenzamide]	7.2 nM	1.3 nM	> 15000 nM	–	–	–	–
Nc1nc2cc(-c3ccc(Cl)c(C(=O)NCC(F)(F)[C@@H](F)c4ccc(F)cc4)c3F)ccn2n1 [Example 282, (S)-3-(2-amino-[1,2,4]triazolo[1,5-a]pyridin-7-yl)-6-chloro-2-fluoro-N-(2,2,3-trifluoro-3-(4-fluorophenyl)propyl)benzamide]	2.2 nM	1.1 nM	> 15000 nM	–	–	–	–
Nc1nc2cc(-c3ccc(CF)c(C(=O)NCC(F)(F)[C@@H](O)c4ccc(F)cc4)c3F)ccn2n1 [Example 294, (S)-3-(2-amino-[1,2,4]triazolo[1,5-a]pyridin-7-yl)-N-(2,2-difluoro-3-(4-fluorophenyl)-3-hydroxypropyl)-2-fluoro-6-(fluoromethyl)benzamide]	1.9 nM	1.9 nM	> 15000 nM	–	–	–	–

Reference: patent publication US11767322B2 (BRISTOL-MYERS SQUIBB COMPANY, priority 2020, dated 2023)
